Laboratory results taken from patent US20080312255A1 (ASTRAZENECA AB, priority 2007, published 2008).

The compounds below were run against S. aureus GyrB ATPase (Staphylococcus aureus, UniProt P0A0K8) (assay: S. aureus GyrB ATPase inhibition (ammonium molybdate/malachite green phosphate detection)). Settings: compound concentration of 1 μM.
Chain of S. aureus GyrB ATPase (P0AES4 whole entry): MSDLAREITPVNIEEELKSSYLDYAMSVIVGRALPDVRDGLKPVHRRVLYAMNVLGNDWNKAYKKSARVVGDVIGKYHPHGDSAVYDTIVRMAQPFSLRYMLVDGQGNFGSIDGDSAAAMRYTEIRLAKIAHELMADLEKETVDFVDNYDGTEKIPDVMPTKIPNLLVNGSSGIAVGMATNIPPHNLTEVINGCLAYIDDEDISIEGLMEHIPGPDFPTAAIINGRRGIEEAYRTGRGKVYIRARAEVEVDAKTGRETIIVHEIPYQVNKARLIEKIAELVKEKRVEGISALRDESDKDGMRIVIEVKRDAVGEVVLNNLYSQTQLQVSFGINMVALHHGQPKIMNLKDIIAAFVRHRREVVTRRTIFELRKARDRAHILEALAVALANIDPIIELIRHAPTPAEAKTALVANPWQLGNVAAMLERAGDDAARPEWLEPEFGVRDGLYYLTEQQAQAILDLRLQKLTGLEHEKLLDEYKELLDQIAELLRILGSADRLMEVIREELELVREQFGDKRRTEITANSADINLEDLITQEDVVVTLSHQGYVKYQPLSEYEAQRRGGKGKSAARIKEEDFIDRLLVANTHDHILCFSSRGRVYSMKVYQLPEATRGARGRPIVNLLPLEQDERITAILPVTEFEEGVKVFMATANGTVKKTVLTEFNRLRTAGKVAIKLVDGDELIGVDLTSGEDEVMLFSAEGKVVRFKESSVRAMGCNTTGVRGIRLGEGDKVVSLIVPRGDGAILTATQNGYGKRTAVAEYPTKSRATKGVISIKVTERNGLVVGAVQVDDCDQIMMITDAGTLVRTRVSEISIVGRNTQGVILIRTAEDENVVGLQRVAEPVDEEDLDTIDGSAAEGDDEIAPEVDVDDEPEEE
Chain of S. aureus GyrB ATPase (P0A0K8 whole entry): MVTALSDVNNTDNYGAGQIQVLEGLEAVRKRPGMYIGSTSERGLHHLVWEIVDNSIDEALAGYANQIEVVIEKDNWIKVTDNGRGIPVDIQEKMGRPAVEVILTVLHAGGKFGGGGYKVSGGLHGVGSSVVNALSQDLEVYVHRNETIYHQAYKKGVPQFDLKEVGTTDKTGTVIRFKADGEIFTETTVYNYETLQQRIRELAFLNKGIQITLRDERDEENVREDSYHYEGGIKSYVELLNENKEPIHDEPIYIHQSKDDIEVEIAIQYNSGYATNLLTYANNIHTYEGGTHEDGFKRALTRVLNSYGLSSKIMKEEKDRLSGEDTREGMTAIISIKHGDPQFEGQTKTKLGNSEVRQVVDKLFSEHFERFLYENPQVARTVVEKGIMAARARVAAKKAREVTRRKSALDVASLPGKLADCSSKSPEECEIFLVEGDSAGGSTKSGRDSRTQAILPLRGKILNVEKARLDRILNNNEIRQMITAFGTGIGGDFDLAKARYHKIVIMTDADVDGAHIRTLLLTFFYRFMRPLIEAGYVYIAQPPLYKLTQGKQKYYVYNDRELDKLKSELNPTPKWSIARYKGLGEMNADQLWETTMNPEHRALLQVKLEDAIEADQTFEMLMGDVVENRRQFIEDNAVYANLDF
Assay type: biochemical
Description: S. aureus GyrB ATPase Inhibition Activity: Compounds may be tested for inhibition of S. aureus GyrB ATPase activity using an ammonium molybdate/malachite green-based phosphate detection assay (Lanzetta, P. A., L. J. Alvarez, P. S. Reinach, and O. A. Candia, 1979, 100: 95-97). Assays can be performed in multiwell plates in 30 μl reactions containing: 50 mM Hepes buffer pH 7.5, 75 mM ammonium acetate, 8.0 mM magnesium chloride, 0.5 mM ethylenediaminetetraacetic acid, 5% glycerol, 1.0 mM 1,4-Dithio-DL-threitol, 200 nM bovine serum albumin, 1.0 μg/ml sheared salmon sperm DNA, 250 pM E. coli GyrA, 250 pM S. aureus GyrB, 250 μM ATP, and compound in dimethylsulfoxide. Reactions can be quenched with […] of ammonium molybdate/malachite green detection reagent containing 1.2 mM malachite green hydrochloride, 8.5 mM ammonium molybdate tetrahydrate, and 1 M hydrochloric acid. Plates can be read in an absorbance plate reader at 650 nm and percent inhibition values can be calculated using dimethylsulfoxide (2%)-containing reactions as 0% inhibition and EDTA-containing ([…]) reactions as 100% inhibition controls. An IC50 measurement of compound potency for each compound can be determined from reactions performed in the presence of 10 different compound concentrations.
Compounds of the invention were tested in an assay substantially similar to the assay described above for measuring the inhibition of S. aureus GyrB ATPase. Percent inhibition of S. aureus GyrB ATPase at a compound concentration of 1 μM (unless otherwise noted) is disclosed in the following table: […]
COCn1ccnc1-c1nc(N2CC[C@@H](NC(=O)c3[nH]c(C)c(Cl)c3Cl)[C@@H](OC)C2)sc1C(=O)OC [Example 58, methyl 2-((3S,4R)-4-{[(3,4-dichloro-5-methyl-1H-pyrrol-2-yl)carbonyl]amino}-3-methoxypiperidin-1-yl)-4-[1-(methoxymethyl)-1H-imidazol-2-yl]-1,3-thiazole-5-carboxylate] showed an inhibition at 1 µM of 99.5%. With COCn1ccnc1-c1nc(N2CC[C@@H](NC(=O)c3[nH]c(C)c(Cl)c3Cl)[C@@H](F)C2)sc1C(=O)OC [Example 59] the inhibition at 1 µM was 100%. Compound COC(=O)c1sc(N2CC[C@@H](NC(=O)c3[nH]c(C)c(Cl)c3Cl)[C@@H](OC)C2)nc1-c1ccno1 [Example 60] has an inhibition at 1 µM of 104%. In the case of COC(=O)c1sc(N2CC[C@@H](NC(=O)c3[nH]c(C)c(Cl)c3Cl)[C@@H](F)C2)nc1-c1ccno1 [Example 61], the inhibition at 1 µM is reported as 94.7%. With COC(=O)c1sc(N2CC[C@@H](NC(=O)c3[nH]c(C)c(Cl)c3Cl)[C@@H](OC)C2)nc1-c1ccn[nH]1 [Example 62] the inhibition at 1 µM was 99.9%. COC(=O)c1sc(N2CC[C@@H](NC(=O)c3[nH]c(C)c(Cl)c3Cl)[C@@H](F)C2)nc1-c1ccn[nH]1 [Example 63] showed an inhibition at 1 µM of 99.8%. For COCCn1ccnc1-c1nc(N2CC[C@@H](NC(=O)c3[nH]c(C)c(Cl)c3Cl)[C@@H](OC)C2)sc1C(=O)OC [Example 64], the inhibition at 1 µM was 96.2%. With COCCn1ccnc1-c1nc(N2CC[C@@H](NC(=O)c3[nH]c(C)c(Cl)c3Cl)[C@@H](F)C2)sc1C(=O)OC [Example 65] the inhibition at 1 µM was 98.3%. COC(=O)c1sc(N2CC[C@@H](NC(=O)c3[nH]c(C)c(Cl)c3Cl)[C@@H](OC)C2)nc1-c1ncnn1C [Example 66] was tested, and the inhibition at 1 µM was 101%. COC(=O)c1sc(N2CC[C@@H](NC(=O)c3[nH]c(C)c(Cl)c3Cl)[C@@H](F)C2)nc1-c1ncnn1C [Example 67] was tested, and the inhibition at 1 µM was 75.2%. For COC(=O)c1sc(N2CC[C@@H](NC(=O)c3cc(C#N)c(C)[nH]3)[C@@H](OC)C2)nc1-c1ncnn1C [Example 68], the inhibition at 1 µM was 97%. COCCn1ccnc1-c1nc(N2CC[C@@H](NC(=O)c3[nH]c(C)c(C#N)c3Cl)[C@@H](OC)C2)sc1C(=O)OC [Example 69] gave an inhibition at 1 µM of 100%. For COC(=O)c1sc(N2CC[C@@H](NC(=O)c3[nH]c(C)c(Cl)c3Cl)[C@@H](OC)C2)nc1-c1nc(C)c(C)n1C [Example 70], the inhibition at 1 µM was 99.5%. In the case of COC(=O)c1sc(N2CC[C@@H](NC(=O)c3[nH]c(C)c(Cl)c3Cl)[C@@H](OC)C2)nc1-c1csc(N)n1 [Example 71], the inhibition at 1 µM is reported as 101%. CNc1nc(-c2nc(N3CC[C@@H](NC(=O)c4[nH]c(C)c(Cl)c4Cl)[C@@H](OC)C3)sc2C(=O)OC)cs1 [Example 72] showed an inhibition at 1 µM of 101%. Work on COC(=O)c1sc(N2CC[C@@H](NC(=O)c3[nH]c(C)c(Cl)c3Cl)[C@@H](OC)C2)nc1-c1csc(N(C)C)n1 [Example 73] yielded an inhibition at 1 µM of 99.9%. With COC(=O)c1sc(N2CC[C@@H](NC(=O)c3[nH]c(C)c(Cl)c3Cl)[C@@H](F)C2)nc1-c1csc(N)n1 [Example 74] the inhibition at 1 µM was 100%. Compound CNc1nc(-c2nc(N3CC[C@@H](NC(=O)c4[nH]c(C)c(Cl)c4Cl)[C@@H](F)C3)sc2C(=O)OC)cs1 [Example 75] has an inhibition at 1 µM of 93.1%. In the case of COC(=O)c1sc(N2CC[C@@H](NC(=O)c3[nH]c(C)c(Cl)c3Cl)[C@@H](F)C2)nc1-c1csc(N(C)C)n1 [Example 76], the inhibition at 1 µM is reported as 99.2%. Work on CCOC(=O)c1sc(N2CC[C@@H](NC(=O)c3[nH]c(C)c(Cl)c3Cl)[C@@H](OC)C2)nc1-c1cn(C)cn1 [Example 77] yielded an inhibition at 1 µM of 100%. CCOC(=O)c1sc(N2CC[C@@H](NC(=O)c3[nH]c(C)c(Cl)c3Cl)[C@@H](F)C2)nc1-c1cn(C)cn1 [Example 78] showed an inhibition at 1 µM of 101%. In the case of COC(=O)c1sc(N2CC[C@@H](NC(=O)c3[nH]c(C)c(Cl)c3Cl)[C@@H](F)C2)nc1-c1nccn1C [Example 79], the inhibition at 1 µM is reported as 101%. For COC(=O)c1sc(N2CC[C@@H](NC(=O)c3[nH]c(C)c(C#N)c3Cl)[C@@H](OC)C2)nc1-c1ncnn1C [Example 80], the inhibition at 1 µM was 99.7%. Work on CCOC(=O)c1sc(N2CC[C@@H](NC(=O)c3[nH]c(C)c(Cl)c3Cl)[C@@H](OC)C2)nc1-c1ccncn1 [Example 81] yielded an inhibition at 1 µM of 100%. COC(=O)c1sc(N2CC[C@@H](NC(=O)c3[nH]c(C)c(Cl)c3Cl)[C@@H](OC)C2)nc1-c1nccc(OC)n1 [Example 82] was tested, and the inhibition at 1 µM was 103%. CCOC(=O)c1sc(N2CC[C@@H](NC(=O)c3[nH]c(C)c(Cl)c3Cl)[C@@H](OC)C2)nc1-c1nnco1 [Example 83] showed an inhibition at 1 µM of 102%. CCOC(=O)c1sc(N2CC[C@@H](NC(=O)c3[nH]c(C)c(Cl)c3Cl)[C@@H](OC)C2)nc1-c1nc(C)no1 [Example 84] was tested, and the inhibition at 1 µM was 103%. Work on CCOC(=O)c1sc(N2CC[C@@H](NC(=O)c3[nH]c(C)c(Cl)c3Cl)[C@@H](OC)C2)nc1-c1nnc(C)o1 [Example 85, Ethyl 2-((3S,4R)-4-{[(3,4-dichloro-5-methyl-1H-pyrrol-2-yl)carbonyl]amino}-3-methoxypiperidin-1-yl)-4-(5-methyl-1,3,4-oxadiazol-2-yl)-1,3-thiazole-5-carboxylate] yielded an inhibition at 1 µM of 102%. COC(=O)c1sc(N2CC[C@@H](NC(=O)c3[nH]c(C)c(Cl)c3Cl)[C@@H](OC)C2)nc1-c1ncc[nH]1 [Example 86, Methyl 2-((3S,4R)-4-{[(3,4-dichloro-5-methyl-1H-pyrrol-2-yl)carbonyl]amino}-3-methoxypiperidin-1-yl)-4-(1H-imidazol-2-yl)-1,3-thiazole-5-carboxylate] was tested, and the inhibition at 1 µM was 99.9%. Compound COC(=O)c1sc(N2CC[C@@H](NC(=O)c3[nH]c(C)c(Cl)c3Cl)[C@@H](F)C2)nc1-c1ncc[nH]1 [Example 87] has an inhibition at 1 µM of 71%. Work on CO[C@H]1CN(c2nc(-c3nnc(C)o3)c(C(=O)O)s2)CC[C@H]1NC(=O)c1[nH]c(C)c(Cl)c1Cl [Example 90, 2-((3S,4R)-4-{[(3,4-Dichloro-5-methyl-1H-pyrrol-2-yl)carbonyl]amino}-3-methoxypiperidin-1-yl)-4-(5-methyl-1,3,4-oxadiazol-2-yl)-1,3-thiazole-5-carboxylic acid] yielded an inhibition at 1 µM of 101%. With COC(=O)c1sc(N2CC[C@@H](NC(=O)c3[nH]c(C)c(Cl)c3Cl)[C@@H](OC)C2)nc1-c1cn(C)nn1 [Example 92, methyl 2-((3S,4R)-4-(3,4-dichloro-5-methyl-1H-pyrrole-2-carboxamido)-3-methoxypiperidin-1-yl)-4-(1-methyl-1H-1,2,3-triazol-4-yl)thiazole-5-carboxylate] the inhibition at 1 µM was 100%. Compound COC(=O)c1sc(N2CC[C@@H](NC(=O)c3[nH]c(C)c(Cl)c3Cl)[C@@H](OC)C2)nc1-c1ncc(C)nc1C [Example 93, methyl 2-((3S,4R)-4-(3,4-dichloro-5-methyl-1H-pyrrole-2-carboxamido)-3-methoxypiperidin-1-yl)-4-(3,5-dimethylpyrazin-2-yl)thiazole-5-carboxylate] has an inhibition at 1 µM of 99.3%. With COC(=O)c1sc(N2CC[C@@H](NC(=O)c3[nH]c(C)c(Cl)c3Cl)[C@@H](OC)C2)nc1-c1cccc(OC)n1 [Example 94, methyl 2-((3S,4R)-4-(3,4-dichloro-5-methyl-1H-pyrrole-2-carboxamido)-3-methoxypiperidin-1-yl)-4-(6-methoxypyridin-2-yl)thiazole-5-carboxylate] the inhibition at 1 µM was 106%.
